Tests used:
CB2 receptors = target: T1, CB2 receptors (Rattus norvegicus, UniProt Q9QZN9); test: Radioreceptor binding, [3H]-CP-55,940 displacement, rat spleen membranes; conditions: 1 nM [3H]-CP55,940
T1 construct: the brain in toto (cerebellum excluded) and the spleen were rapidely dissected; from tissue; host or cells: rat spleen membranes
T1 sequence (Q9QZN9 1-360): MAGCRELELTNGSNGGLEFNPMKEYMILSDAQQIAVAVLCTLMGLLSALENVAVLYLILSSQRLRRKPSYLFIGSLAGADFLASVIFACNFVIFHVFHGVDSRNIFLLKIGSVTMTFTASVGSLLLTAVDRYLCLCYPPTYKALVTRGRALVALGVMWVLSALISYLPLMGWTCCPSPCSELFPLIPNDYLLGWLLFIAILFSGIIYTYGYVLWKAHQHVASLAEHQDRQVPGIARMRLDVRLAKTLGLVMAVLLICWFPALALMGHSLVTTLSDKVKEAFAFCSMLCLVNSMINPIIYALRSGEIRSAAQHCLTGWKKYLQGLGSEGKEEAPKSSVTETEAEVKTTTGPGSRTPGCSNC
Excerpt: (§1) The receptorial binding technique allows indeed to establish if and with what affinity and specificity a determined compound binds itself to a particular receptor. To evaluate the affinity of a determined compound towards a particular receptor, a particular preparation of the tissue wherein the receptors are present is used and the tested compound is made to compete with another compound, treated so as to make it radioactive and of which the affinity for the receptor is known. […] The reading of the radioactivity present in the receptor-compound complex allows furthermore to precisely calculate the compound amount bound to the receptor. By this method it is therefore possible to rapidely identify the affinity of a new compound towards a specific receptor and thus to make predictions on its pharmacological activity. By repeating the same experimental scheme it is possible to evaluate the affinity of the compound towards other kinds of receptors and thus establish the specificity degree.
(§2) Food and water were available ad libitum.
(§3) The animals were sacrificed by cervical dislocation, the brain in toto (cerebellum excluded) and the spleen were rapidely dissected and maintained in ice.
(§4) The tissue was homogenized in 15 volumes (weight/volume) of TME buffer (50 mM Tris, 1 mM EDTA e 3 mM MgCl2, pH 7.4) by an Ultra-Turrax and centrifuged for 10 minutes at 1086×g in a centrifuge cooled at 4° C. The resulting supernatant was centrifuged at 45,000×g for 30 min at 4° C. by using a Beckman SW41 rotor and the final pellet was resuspended in 50 volumes of TME.
(§5) The obtained membranes (50-80 μg of proteins) were incubated in the presence of 1 nM di [^3H]-CP55,940 for 1 h at 30° C. in a final volume of 0.5 ml of TME buffer containing 5 mg/ml of bovine serum albumin (BSA). The non specific binding was measured in the presence of CP55,940 at the 1 μM concentration. […]
(§6) The radioactivity present in the filters was measured by a scintillator spectrophotometer (Tricarb 2100, Packard, Meridien, USA). […]

CB1 receptors [1] = target: T2, CB1 receptors (Rattus norvegicus, UniProt P20272); test: Radioreceptor binding, [3H]-CP-55,940 displacement, rat brain membranes; parameters: from tissue; host or cells: whole animal (rat), central CB1 receptors of the hypothalamus; conditions: 1 nM [3H]-CP55,940
Excerpt: as §1, §2, §3, §4, §5, §6

CB1 receptors [2] = target: T2, CB1 receptors; test: Hypothermia test in vivo, compound alone (rectal temperature); parameters: from tissue; host or cells: whole animal (rat), central CB1 receptors of the hypothalamus; conditions: i.p., doses 0.1, 0.5, 1.0, 3.0, 6.0 mg/kg, versus physiological solution (38° C.)
Protocol: The test was carried out with the compound of the Example 3.1c. Aqueous samples were used wherein the compound of the Example 3.1c was dispersed in water with three drops of Tween 80. Following the above procedure, treatments were carried out with doses (mg compound/kg of body weight) respectively of 0.1; 0.5; 1.0; 3.0; 6.0.

T2 sequence (P20272 whole entry): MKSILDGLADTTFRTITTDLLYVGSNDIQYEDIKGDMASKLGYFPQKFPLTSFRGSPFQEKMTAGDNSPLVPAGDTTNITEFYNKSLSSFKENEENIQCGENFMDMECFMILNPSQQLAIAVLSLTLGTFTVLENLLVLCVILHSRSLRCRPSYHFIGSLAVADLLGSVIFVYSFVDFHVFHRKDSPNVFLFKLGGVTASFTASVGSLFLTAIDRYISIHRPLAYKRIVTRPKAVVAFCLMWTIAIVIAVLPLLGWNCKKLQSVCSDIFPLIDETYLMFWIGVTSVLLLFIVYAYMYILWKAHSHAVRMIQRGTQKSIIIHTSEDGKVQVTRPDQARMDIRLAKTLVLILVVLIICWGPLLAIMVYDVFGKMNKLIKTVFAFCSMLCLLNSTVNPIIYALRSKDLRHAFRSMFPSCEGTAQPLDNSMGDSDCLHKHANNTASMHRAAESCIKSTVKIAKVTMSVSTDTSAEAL

melting point [°C] | SMILES | Ki (CB2 receptors) [nM] | Ki (CB1 receptors [1]) [nM] | effect of the compound as such on body temperature (CB1 receptors [2])
175 to 176 | Cc1c(C(=O)Nc2ccccc2)nn(-c2ccc(Cl)cc2Cl)c1-c1ccc(Cl)s1 | – | – | –
– | Cc1c(C(=O)NN2CCCCCC2)nn(-c2ccc(Cl)cc2Cl)c1-c1ccc(Cl)s1 [Example 3.1c, N-homopiperidinyl-5-(5-Chloro-thiophen-2-yl)-1-(2′,4′-dichloro-phenyl)-4-methyl-1H-pyrazol-3-carboxamide] | 270 ± 5 | 21 ± 1 | In none of the examined cases there was a reduction of the body temperature

Source: patent US8227620B2, “Pharmaceutical compounds” (Neuroscienze Pharmaness S.C. A.R.L., priority 2004, dated 2012)
